The source made the active and inactive calls.

These results are taken from ChEMBL document CHEMBL1201862, “PubChem BioAssay data set” (2004).

One test has as its target Hexokinase (Trypanosoma brucei, UniProt Q38C41). Briefly: Confirmation assay for inhibitors of Trypanosoma brucei hexokinase 1-Analogue-first series. [Related pubchem assays (depositor defined):AID1430, AID1632, AID2516, AID2560, AID2579, AID2600, AID449725, AID492951]. In kind it is functional.
Test [1] concerns the target T1, Kappa-type opioid receptor (Homo sapiens, UniProt P41145). Briefly: SAR analysis of Antagonists of the Kappa Opioid Receptor (KOR) using an Image-Based Assay - Set 3. [Related pubchem assays (depositor defined):AID1777, AID1785]. The test is classed as functional.
The target of test [2] is T1, Kappa-type opioid receptor. The test is described as follows: SAR analysis of small molecule antagonists of the kappa opioid receptor via a luminescent beta-arrestin assay - Set 3. [Related pubchem assays (depositor defined):AID1777, AID1778, AID1785, AID1786, AID1966, AID2133, AID2136, AID2285, AID2495]. In kind it is functional.
The target of a further test is Mu-type opioid receptor (Homo sapiens, UniProt P35372). Briefly: SAR Analysis of Antagonists of the MOR Receptor using an Image-Based Assay - Set 3. [Related pubchem assays (depositor defined):AID1777, AID1785, AID1786, AID1966, AID2133, AID2136, AID2284, AID2285, AID2420]. The test is classed as functional.
Sequence of Mu-type opioid receptor (P35372 whole entry): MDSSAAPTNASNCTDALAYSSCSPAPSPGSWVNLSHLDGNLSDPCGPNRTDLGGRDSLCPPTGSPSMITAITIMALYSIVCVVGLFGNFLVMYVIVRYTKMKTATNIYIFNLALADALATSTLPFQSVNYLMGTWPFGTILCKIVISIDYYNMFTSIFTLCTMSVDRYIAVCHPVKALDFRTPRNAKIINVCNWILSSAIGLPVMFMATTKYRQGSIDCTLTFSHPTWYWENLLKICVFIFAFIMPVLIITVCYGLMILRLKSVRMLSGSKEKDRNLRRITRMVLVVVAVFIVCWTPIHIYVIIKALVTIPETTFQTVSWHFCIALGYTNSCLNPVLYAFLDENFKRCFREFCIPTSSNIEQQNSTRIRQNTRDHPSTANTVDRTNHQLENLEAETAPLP
Test [3] has as its target Delta-type opioid receptor (Homo sapiens, UniProt P41143). Briefly: SAR Analysis of Antagonists of the DOR Receptor using an Image-Based Assay - Set 3. [Related pubchem assays (depositor defined):AID1777, AID1785]. In kind it is functional.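 Further: U2OS cells expressing DOR1 and beta-arrestin GFP stimulated with 100 nM SNC80; imaging of GFP-tagged beta-arrestin moving into spots after receptor activation.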
A short description of test [4]: Fluorescence-based cell-based high throughput dose response assay for inhibitors of the interaction of nucleotide-binding oligomerization domain containing 2 (NOD2) and the receptor-interacting serine-threonine kinase 2 (RIPK2). In kind it is functional. Particulars: Homo sapiens.
The target of test [5] is T2, Beta Lactamase (Pseudomonas aeruginosa, UniProt Q932Y6). Briefly: beta-lactamase reporter inhibitor potency, dose response, artefact control for NOD2-RIPK2 interaction inhibitor project, BLA reporter cells, FRET fluorescence (AID 651552). The test is classed as functional, cell-based.
T2 sequence (Q932Y6 whole entry): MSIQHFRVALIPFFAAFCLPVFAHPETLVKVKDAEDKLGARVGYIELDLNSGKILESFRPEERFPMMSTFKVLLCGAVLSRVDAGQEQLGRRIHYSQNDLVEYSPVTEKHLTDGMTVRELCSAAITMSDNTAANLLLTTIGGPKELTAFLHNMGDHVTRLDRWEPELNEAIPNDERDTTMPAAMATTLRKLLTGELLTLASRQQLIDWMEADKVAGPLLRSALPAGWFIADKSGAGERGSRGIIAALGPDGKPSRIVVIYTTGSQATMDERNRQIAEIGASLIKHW
Test [6] in a line: Shn3 3'UTR reporter inhibitors, dose response, cell-based, Clone20 osteoblasts, firefly luciferase, cherry-picked (AID 624132).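 Further: firefly luciferase luminescence from reporter carrying the Shn3 3'UTR in osteoblasts.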 In kind it is functional.
In test [7] the target is T3, Microphthalmia-associated transcription factor (Homo sapiens, UniProt O75030).
T3 sequence (O75030 whole entry): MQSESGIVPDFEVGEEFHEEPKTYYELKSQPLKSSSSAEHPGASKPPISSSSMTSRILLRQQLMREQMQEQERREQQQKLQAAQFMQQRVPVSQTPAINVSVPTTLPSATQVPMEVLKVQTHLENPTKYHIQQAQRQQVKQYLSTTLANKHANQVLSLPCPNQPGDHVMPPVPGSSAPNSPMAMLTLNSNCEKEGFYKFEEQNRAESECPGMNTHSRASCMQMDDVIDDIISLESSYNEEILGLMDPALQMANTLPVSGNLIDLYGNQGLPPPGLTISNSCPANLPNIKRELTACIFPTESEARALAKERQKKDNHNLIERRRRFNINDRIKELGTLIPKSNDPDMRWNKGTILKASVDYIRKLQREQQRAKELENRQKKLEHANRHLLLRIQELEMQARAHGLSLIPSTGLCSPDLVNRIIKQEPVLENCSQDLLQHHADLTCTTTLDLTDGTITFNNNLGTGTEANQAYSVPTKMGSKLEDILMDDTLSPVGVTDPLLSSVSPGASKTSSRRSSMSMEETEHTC
Briefly: TRPM1 promoter luciferase signal decrease, dose response, MITF inhibitor project, cell-based, SK-MEL-5, cherry-picked, set 3 (AID 493073).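 Further: SK-MEL-5 melanoma cells with luciferase driven by the MITF target TRPM1 promoter.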 The test is classed as functional.

A short description of test [8]: HepG2 cell cytotoxicity, dose response, cytotoxicity control for Shn3 inhibitor project, CellTiter-Glo, cherry-picked (AID 624134). In kind it is functional, cell-based.
Test [9] in a line: control 3'UTR Renilla luciferase suppression, dose response, counter-screen for Shn3 inhibitor project, cell-based, Clone20-Shn3RL, cherry-picked (AID 624133). The test is classed as functional. On the technique in general: Counterscreens check selectivity or assay interference.
For the next test, the target named is T4, Galanin receptor type 3 (Homo sapiens, UniProt O60755).
T4 sequence (O60755 whole entry): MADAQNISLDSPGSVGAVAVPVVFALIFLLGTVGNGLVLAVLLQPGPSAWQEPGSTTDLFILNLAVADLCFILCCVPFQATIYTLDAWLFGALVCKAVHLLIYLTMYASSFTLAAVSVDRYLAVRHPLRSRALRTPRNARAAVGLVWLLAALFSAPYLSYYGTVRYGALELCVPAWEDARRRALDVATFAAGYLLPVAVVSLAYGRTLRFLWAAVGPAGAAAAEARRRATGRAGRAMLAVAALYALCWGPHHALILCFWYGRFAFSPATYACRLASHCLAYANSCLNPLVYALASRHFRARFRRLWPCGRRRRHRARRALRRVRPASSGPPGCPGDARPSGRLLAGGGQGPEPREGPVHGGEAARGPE
The test is described as follows: Fluorescence-based cell-based primary high throughput dose response assay to identify antagonists of the Galanin Receptor 3 (GalR3). In kind it is functional.

The subject of another test is CHO. Briefly: cytotoxicity in TLR9-MyD88 CHO cells, dose response, cytotoxicity control for TLR9-MyD88 binding inhibitor project, cell-based, luminescence (AID 588339).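 Further: CHO cells stably coexpressing TLR9 and MyD88 fusions from primary screen; compound exposure lasted 48 hours before viability readout.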 In kind it is functional, hamster. Particulars: Cricetulus griseus.
The target of test [10] is DNA damage-inducible transcript 3 protein (Mus musculus, UniProt P35639). In kind it is functional, Cricetulus griseus.
Sequence of DNA damage-inducible transcript 3 protein (P35639 whole entry): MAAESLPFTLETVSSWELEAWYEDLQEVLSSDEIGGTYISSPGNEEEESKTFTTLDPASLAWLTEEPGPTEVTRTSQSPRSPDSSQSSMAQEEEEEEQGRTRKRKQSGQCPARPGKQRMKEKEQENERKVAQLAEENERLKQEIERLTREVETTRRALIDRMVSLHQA
The next test is described as follows: cells. Conditions: HEK-CNG. The test is classed as functional, cell-based.
In test [11] the target is T2, Beta Lactamase. Briefly: beta-lactamase reporter inhibitor potency, dose response, artefact control for TLR9-MyD88 binding inhibitor project, BLA reporter cells, FRET fluorescence (AID 588341).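 Further: cell based assay in CHO-K1 cells stably expressing beta-lactamase.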 In kind it is cell-based.
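Wherever EC50 is given: target is galanin receptor GalR3 read with a cAMP biosensor in HEK293 cells.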

T1 sequence (P41145 whole entry): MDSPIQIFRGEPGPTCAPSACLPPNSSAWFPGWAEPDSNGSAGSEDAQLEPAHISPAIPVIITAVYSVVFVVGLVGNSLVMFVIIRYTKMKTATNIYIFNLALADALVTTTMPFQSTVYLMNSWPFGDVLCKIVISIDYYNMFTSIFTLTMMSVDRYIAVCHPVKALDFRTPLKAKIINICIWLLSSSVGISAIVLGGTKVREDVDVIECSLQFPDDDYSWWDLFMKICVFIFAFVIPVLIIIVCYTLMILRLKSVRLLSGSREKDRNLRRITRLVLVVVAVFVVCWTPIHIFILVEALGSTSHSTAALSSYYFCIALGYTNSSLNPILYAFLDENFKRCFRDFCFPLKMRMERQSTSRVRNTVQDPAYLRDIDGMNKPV
Sequence of Hexokinase (Q38C41 whole entry): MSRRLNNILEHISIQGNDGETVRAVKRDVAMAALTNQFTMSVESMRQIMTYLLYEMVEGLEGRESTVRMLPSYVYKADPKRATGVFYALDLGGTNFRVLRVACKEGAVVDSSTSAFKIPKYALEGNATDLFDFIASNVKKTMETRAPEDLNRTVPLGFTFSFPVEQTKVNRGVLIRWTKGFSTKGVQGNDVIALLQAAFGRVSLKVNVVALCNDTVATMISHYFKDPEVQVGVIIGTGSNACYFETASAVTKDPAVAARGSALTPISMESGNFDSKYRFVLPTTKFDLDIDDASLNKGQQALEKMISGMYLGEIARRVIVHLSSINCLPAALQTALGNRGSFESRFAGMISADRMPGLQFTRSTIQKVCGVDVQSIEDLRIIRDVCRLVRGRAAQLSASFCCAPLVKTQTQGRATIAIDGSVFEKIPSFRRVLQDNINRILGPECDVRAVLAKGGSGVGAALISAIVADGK
Sequence of Delta-type opioid receptor (P41143 whole entry, the tested form may be a part): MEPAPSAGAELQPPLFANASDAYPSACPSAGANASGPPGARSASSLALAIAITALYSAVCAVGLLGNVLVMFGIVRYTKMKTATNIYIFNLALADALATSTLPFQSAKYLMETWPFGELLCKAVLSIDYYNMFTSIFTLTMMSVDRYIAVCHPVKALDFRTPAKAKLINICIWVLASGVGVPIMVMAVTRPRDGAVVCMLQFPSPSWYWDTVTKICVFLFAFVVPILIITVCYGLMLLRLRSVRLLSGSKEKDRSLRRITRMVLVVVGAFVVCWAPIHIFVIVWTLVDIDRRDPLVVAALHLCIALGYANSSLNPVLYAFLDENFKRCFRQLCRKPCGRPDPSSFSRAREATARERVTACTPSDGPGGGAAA

In the case of `O=c1cc(-c2ccccc2)sn1-c1ccccc1`, the IC50 on Hexokinase was > 25 µM (inactive).

On to `CCc1ccc(S(=O)(=O)NCc2ccc(C(=O)NCCN(Cc3ccc(C)cc3)C(C)C)cc2)cc1`, for which the IC50 is 0.173 µM (active) in [1], 0.742 µM (active) in test [2], > 32 µM (inactive) on Mu-type opioid receptor and > 32 µM (inactive) in test [3].

On to `CS(=O)(=O)c1nc(-c2ccc(F)cc2)cc(C(F)(F)F)n1`, for which the IC50 in [4] is 2.79 µM (active); at Beta Lactamase [5], 17.7 µM (inactive); at Galanin receptor type 3, > 29.9 µM (inactive); in the test with CHO it was 3.27 µM (active); on Beta Lactamase [11], 27.4 µM (inactive). In addition, the AC50 in [6] is 2.72 µM (active); in test [7], 7.2 µM (active); in [8] it was 24.5 µM (active); in test [9], 7.39 µM (active). For the same compound, the “Absolute IC50 (CHOP)” value in [10] was found to be 10 µM. Moreover, the EC50 in “cells” is > 29.9 µM (inactive).

As a reminder, the IC50 is the concentration that gives 50% inhibition. The term AC50 denotes the concentration at which the activity in the assay is half-maximal. As a reminder, the EC50 is the concentration giving half of the maximal effect.
